Each block holds one molecule with its values, some of them ahead of it.
What was measured:
[1] = tested on: CC14-induced acute liver injury model mice; experiment: CC14-induced acute liver injury model: ALT, AST in serum, SOD, GSH-Px, MDA in liver homogenate; format: in vivo, Kunming mice; details: for GSH-Px / MDA / SOD: liver homogenate, Mean ± SD; for GSH-Px / MDA / SOD / ALT / AST: 3 mg/kg by weight of PQQ, gavage once a day for 7 days; for ALT / AST: serum, 24 h after CC14, Mean ± SD
Procedure: Forty-eight male Kunming mice weighing 18-22 g were randomly divided into 4 groups: blank control group, CC14 model group, PQQ disodium salt group and PQQ betaine salt group, respectively, with 12 mice in each group.
On the 7th day after gavage for 1 h, the mice in CC14 model group, PQQ disodium salt group and PQQ betaine salt group were injected intraperitoneally with 0.25% CC14 peanut oil (10 mL/kg) once, resulting in acute liver injury models; while mice in the blank control group were injected intraperitoneally with peanut oil (10 mL/kg) once. Animals were sacrificed after orbital blood collection for 24 h. 0.5-1 mL blood was collected from the mouse orbit, serum was separated by static centrifugation, and ALT and AST levels in serum were measured by biochemical kits. Animals were sacrificed and livers were removed for preparing liver homogenate. Superoxide dismutase (SOD), glutathione peroxidase (GSH-Px) activity and malondialdehyde (MDA) content in liver homogenates were determined by biochemical kits.

[2] = tested on: scopolamine-induced memory disordered model mice; experiment: Morris water maze spatial probe test in scopolamine-induced memory disordered mice; format: in vivo, Kunming mice; details: for Latent period of crossing the original platform / Number of time of crossing platform: fifth day, Mean ± SD
Procedure: (§1) Fifty Kunming mice, weighing 18-22 g, were randomly divided into five groups: blank control group, model group, low-dose PQQ betaine salt group (1.5 mg/kg), high-dose PQQ betaine salt group (3 mg/kg) and positive control group (donepezil, 3 mg/kg), respectively, 10 mice in each group. Wherein the PQQ betaine salt used is a crystalline Form A of pyrroloquinoline quinone betaine salt prepared according to the method of example 1.
(§2) The blank control group and the model group were administered with distilled water by gavage, the low-dose PQQ betaine salt group, the high-dose group and positive control group were administered with drugs by gavage respectively, once a day. Learning and memory training was carried out on the fifth day of administration and for 5 days in total; the model group, the low-dose PQQ betaine salt group, the high-dose group and the positive control group were intraperitoneally injected with 2 mg/kg of scopolamine 20 minutes earlier before training to obtain memory disordered models, while the blank control group was injected with a corresponding volume of saline. Morris water maze experiment were carried out for 5 days in total, wherein, a place navigation test was carried out in the first 4 days in order to observe and record the time required for the experimental animals to seek and climb onto the platform, in order to test the learning ability of mice. On the fifth day, a spatial probe test was carried out, during the test, the platform was removed, the time (the latent period) when crossing the original platform position for the first time was recorded as well as the number of time of traversing the original platform position for the animal, in order to test the spatial memory capacity of the animal. The latent period and the number of time of traversing platforms were used as evaluation indexes to detect the improvement of learning and memory in dementia model mice.

[3] = Standing at room temperature (hygroscopicity observation); format: physicochemical; details: room temperature (25° C., about 50% humidity), a period of time
[4] = High humidity stability of the crystalline form (XRPD); details: humidity of 92.5%, 5 days and 10 days
Excerpt: The appropriate amount of sample of the crystalline Form A of pyrroloquinoline quinone betaine salt is subjected to the humidity of 92.5%, and after 5 days and 10 days the samples were removed for XPRD testing (as shown in FIGS. 4 and 5) to examine the crystalline stability of the sample against humidity.

[5] = tested on: scopolamine-induced memory disordered model mice; experiment: Morris water maze place navigation test in scopolamine-induced memory disordered mice; format: in vivo, Kunming mice; details: for Latent period, the first day / Latent period, the fourth day / Latent period, the second day / Latent period, the third day: time to climb onto the platform, Mean ± SD
Procedure: as §1, §2

[6] = High temperature stability of the crystalline form (XRPD); details: oven at 60° C., 5 days and 10 days
Procedure: An appropriate amount of sample of the crystalline Form A of Pyrroloquinoline Quinone Betaine Salt was placed in an oven at 60° C., and after 5 days and 10 days the sample was removed for XPRD testing (as shown in FIGS. 2 and 3) to examine the crystalline stability of the sample against temperature.

[7] = Illumination stability of the crystalline form (XRPD); details: light intensity of 4500 lux, 5 and 10 days
Excerpt: An appropriate amount of sample of the crystalline Form A of pyrroloquinoline quinone betaine salt was subjected to a light intensity of 4500 lux, and after 5 and 10 days the sample was removed for XPRD testing (as shown in FIGS. 6 and 7) to examine the crystalline stability of the sample under illumination.

[8] = Solubility of saturated aqueous solution by UV absorbance at 450 nm
[9] = Dynamic moisture sorption (DVS) hygroscopicity; format: physicochemical; details: warehouse environment (humidity of 45%)
[10] = P<0.05 compared to the model group

Molecule: O=C([O-])c1cc(C(=O)[O-])c2c(n1)C(=O)C(=O)c1cc(C(=O)O)[nH]c1-2.[Na+].[Na+] [Disodium salt of PQQ, reference compound]
GSH-Px [1]: 93.4 ± 10.1^ΔΔ kU/g pro
MDA [1]: 2.71 ± 0.37^Δ nmol/L
SOD [1]: 29.5 ± 4.9^Δ kU/g pro
ALT [1]: 126.5 ± 27.0^ΔΔ IU/L
AST [1]: 115.4 ± 22.7^Δ IU/L

Molecule: COc1cc2c(cc1OC)C(=O)C(CC1CCN(Cc3ccccc3)CC1)C2 (centres unmarked) [Donepezil, donepezil, reference compound]
Latent period of crossing the original platform ([2]; 3 mg/kg): 16.41 ± 7.60^ΔΔ s
Number of time of crossing platform ([2]; 3 mg/kg): 2.90 ± 0.57^ΔΔ

appearance after standing (hygroscopicity) [3]: became a sticky solid
Molecule: C[N+](C)(C)CCO.C[N+](C)(C)CCO.C[N+](C)(C)CCO.O=C(O)c1cc(C(=O)O)c2c(n1)C(=O)C(=O)c1cc(C(=O)O)[nH]c1-2 [tricholine salt of PQQ]

Molecule: pyrroloquinoline quinone betaine salt [PQQ betaine salt]
crystalline stability against humidity [4]: stable
Latent period, the first day ([5]; 1.5 mg/kg gavage once a day): 74.30 ± 17.80 s
Latent period, the fourth day ([5]; 1.5 mg/kg gavage once a day): 50.80 ± 15.95 s
Latent period, the second day ([5]; 1.5 mg/kg gavage once a day): 62.90 ± 14.07 s
Latent period, the third day ([5]; 1.5 mg/kg gavage once a day): 51.90 ± 16.43 s
Latent period, the first day ([5]; 3 mg/kg gavage once a day): 74.70 ± 16.94 s
Latent period, the fourth day ([5]; 3 mg/kg gavage once a day): 29.50 ± 12.29^ΔΔ s
Latent period, the second day ([5]; 3 mg/kg gavage once a day): 62.30 ± 13.84 s
Latent period, the third day ([5]; 3 mg/kg gavage once a day): 38.20 ± 14.01^Δ s
latent period in place navigation compared with the model group ([5]; P<0.05 or P<0.01 compared with the model group): significantly shortened
Latent period of crossing the original platform ([2]; 1.5 mg/kg): 25.48 ± 12.19^ΔΔ s
Number of time of crossing platform ([2]; 1.5 mg/kg): 2.20 ± 0.42^Δ
Latent period of crossing the original platform ([2]; 3 mg/kg): 20.98 ± 9.44^ΔΔ s
Number of time of crossing platform ([2]; 3 mg/kg): 2.10 ± 0.57^Δ
latent period in spatial search compared to the model group [2, 10]: reduced
number of time of crossing platform compared to the model group [2, 10]: increased
crystalline stability against temperature [6]: stable
effect on CC14-induced acute liver injury in mice ([1]; 3 mg/kg, gavage, 7 days, overall conclusion): significantly improved
GSH-Px [1]: 93.5 ± 9.0^ΔΔ kU/g pro
MDA [1]: 2.61 ± 0.37^ΔΔ nmol/L
SOD [1]: 31.1 ± 4.5^ΔΔ kU/g pro
ALT [1]: 110.1 ± 26.0^ΔΔ IU/L
AST [1]: 110.0 ± 20.4^ΔΔ IU/L
crystalline stability under illumination [7]: stable
Relative ratio (solubility) [8]: 1.50
Solubility ([8]; saturated aqueous solution at 30° C., solubility of pyrroloquinoline quinone): 14.50 mM
moisture sorption [9]: 1.1%
